Literature values, collected in patent publication US20070154533A1, “Method of increasing testosterone and related steriod concentrations in women” (priority 2005, published 2007).
Like-named read-outs stand apart in the source and are kept apart here.

Experiments:
[1] = for Mean (±SD) serum free testosterone concentration: transdermal patch, 12 weeks, oophorectomized women on conjugated equine estrogens
[2] = circulating testosterone
[3] = patch delivering 150 ug/day, HIV-infected women, over 12 weeks
[4] = molecular target: T1, sex hormone binding globulin (Homo sapiens, UniProt P04278); conditions: in women
T1 sequence (P04278 30-402): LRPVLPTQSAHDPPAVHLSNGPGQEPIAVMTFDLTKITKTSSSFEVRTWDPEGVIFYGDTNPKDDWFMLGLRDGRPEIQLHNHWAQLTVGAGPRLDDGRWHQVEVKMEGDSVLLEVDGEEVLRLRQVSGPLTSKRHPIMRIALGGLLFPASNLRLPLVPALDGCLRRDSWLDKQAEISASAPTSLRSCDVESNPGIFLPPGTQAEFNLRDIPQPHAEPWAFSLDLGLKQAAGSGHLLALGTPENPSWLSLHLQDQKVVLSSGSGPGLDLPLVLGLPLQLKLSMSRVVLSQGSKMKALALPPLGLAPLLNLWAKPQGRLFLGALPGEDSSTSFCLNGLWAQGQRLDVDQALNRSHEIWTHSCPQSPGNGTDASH

albumin = albumin (Homo sapiens, UniProt P02768); conditions: in women
Chain of albumin (P02768 25-609): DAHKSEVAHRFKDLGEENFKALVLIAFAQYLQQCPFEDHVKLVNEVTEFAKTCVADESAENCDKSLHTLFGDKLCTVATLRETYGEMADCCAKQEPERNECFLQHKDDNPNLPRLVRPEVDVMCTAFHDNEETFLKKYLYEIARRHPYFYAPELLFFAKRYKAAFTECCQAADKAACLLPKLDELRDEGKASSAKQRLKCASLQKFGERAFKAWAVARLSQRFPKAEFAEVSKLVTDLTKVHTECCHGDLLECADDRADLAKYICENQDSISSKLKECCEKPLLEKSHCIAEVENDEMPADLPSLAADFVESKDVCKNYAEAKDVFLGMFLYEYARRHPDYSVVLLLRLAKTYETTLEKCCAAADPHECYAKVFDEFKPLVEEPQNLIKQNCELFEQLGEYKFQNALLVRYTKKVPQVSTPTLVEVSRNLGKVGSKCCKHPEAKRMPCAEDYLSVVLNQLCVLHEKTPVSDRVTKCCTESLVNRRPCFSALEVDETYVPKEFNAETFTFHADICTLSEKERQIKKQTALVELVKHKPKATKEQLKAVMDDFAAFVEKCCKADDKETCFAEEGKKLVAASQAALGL

## C[C@]12CC[C@H]3[C@@H](CCC4=CC(=O)CC[C@@]43C)[C@@H]1CC[C@@H]2O [Testosterone, testosterone]
[1]; higher dose
  Scores on the telephone-based diary: did not increase significantly
[1]; higher dose vs placebo
  Psychological Well-Being Index positive-well-being, depressed-mood, and composite scores: improved at the higher dose
[1]; higher dose, vs base line
  Percentages of women who had sexual fantasies, masturbated, or engaged in sexual intercourse at least once a week: increased two to three times from base line
[1]; higher testosterone dose (300 μg per day), P=0.03 vs placebo
  Brief Index of Sexual Functioning for Women scores: further increases in scores for frequency of sexual activity and pleasure-orgasm
[1]; 160 μg of testosterone per day
  Mean (±SD) serum free testosterone concentration: 3.9 ± 2.4 pg/mL
[1]; 300 μg of testosterone per day
  Mean (±SD) serum free testosterone concentration: 4.9 ± 4.8 pg/mL
[2]
  Bound to protein in the blood: 98%
[3]
  Increase in body weight: 4%
[4]
  Binding to sex hormone binding globulin: approximately 65%
albumin
  Bound weakly to albumin: 33%
